Measured values reported in the NIST ThermoML archive (doi:10.1021/je700152c).

Assay: molar heat capacity at saturation pressure; xn = mol fraction of the nth substance listed

CCCCn1cc[n+](C)c1.Cc1ccc(S(=O)(=O)[O-])cc1 [1-butyl-3-methylimidazolium tosylate] + O
Details	molar heat capacity [J/K/mol]
246.29 K, Crystal, x1 = 0.3	181.97
247.04 K, Crystal, x1 = 0.37	195.61
247.05 K, Crystal, x1 = 0.83	303.46
247.42 K, Crystal, x1 = 0.3	183.98
248.02 K, Metastable crystal, x1 = 0.83	322.49
248.32 K, Crystal, x1 = 0.37	197.76
248.55 K, Crystal, x1 = 0.3	185.99
249.21 K, Crystal, x1 = 0.83	306.59
249.59 K, Crystal, x1 = 0.37	199.9
249.68 K, Crystal, x1 = 0.3	188.1
249.95 K, Metastable crystal, x1 = 0.83	325.36
250.8 K, Crystal, x1 = 0.3	190.22
250.86 K, Crystal, x1 = 0.37	202.18
251.37 K, Crystal, x1 = 0.83	309.46
251.87 K, Metastable crystal, x1 = 0.83	328.49
251.91 K, Crystal, x1 = 0.3	192.75
252.13 K, Crystal, x1 = 0.37	204.32
253.03 K, Crystal, x1 = 0.3	194.97
253.39 K, Crystal, x1 = 0.37	206.85
253.52 K, Crystal, x1 = 0.83	312.59
253.79 K, Metastable crystal, x1 = 0.83	331.88
254.13 K, Crystal, x1 = 0.3	197.41
254.64 K, Crystal, x1 = 0.37	209.37
255.24 K, Crystal, x1 = 0.3	200.05
255.66 K, Crystal, x1 = 0.83	315.71
255.7 K, Metastable crystal, x1 = 0.83	335.27
255.89 K, Crystal, x1 = 0.37	212.02
256.33 K, Crystal, x1 = 0.3	202.69
257.13 K, Crystal, x1 = 0.37	214.67
257.42 K, Crystal, x1 = 0.3	205.55
257.6 K, Metastable crystal, x1 = 0.83	339.18
257.79 K, Crystal, x1 = 0.83	318.84
258.37 K, Crystal, x1 = 0.37	217.57
258.51 K, Crystal, x1 = 0.3	208.4
259.5 K, Metastable crystal, x1 = 0.83	342.83
259.59 K, Crystal, x1 = 0.3	211.36
259.6 K, Crystal, x1 = 0.37	220.6
259.92 K, Crystal, x1 = 0.83	322.23
260.66 K, Crystal, x1 = 0.3	214.43
260.83 K, Crystal, x1 = 0.37	223.76
261.38 K, Metastable crystal, x1 = 0.83	346.22
261.73 K, Crystal, x1 = 0.3	217.6
262.04 K, Crystal, x1 = 0.83	325.62
262.05 K, Crystal, x1 = 0.37	227.04
262.8 K, Crystal, x1 = 0.3	221.09
263.25 K, Metastable crystal, x1 = 0.83	349.61
263.26 K, Crystal, x1 = 0.37	230.45
263.85 K, Crystal, x1 = 0.3	224.58
264.15 K, Crystal, x1 = 0.83	329.27
264.46 K, Crystal, x1 = 0.37	233.98
264.9 K, Crystal, x1 = 0.3	228.28
265.12 K, Metastable crystal, x1 = 0.83	353.26
265.66 K, Crystal, x1 = 0.37	238.02
265.94 K, Crystal, x1 = 0.3	232.09
266.24 K, Crystal, x1 = 0.83	333.18
266.85 K, Crystal, x1 = 0.37	241.93
266.97 K, Crystal, x1 = 0.3	236
266.99 K, Metastable crystal, x1 = 0.83	356.38
268 K, Crystal, x1 = 0.3	240.55
268.03 K, Crystal, x1 = 0.37	246.09
268.33 K, Crystal, x1 = 0.83	337.35
268.85 K, Metastable crystal, x1 = 0.83	360.03
269.01 K, Crystal, x1 = 0.3	244.56
269.2 K, Crystal, x1 = 0.37	250.51
270.02 K, Crystal, x1 = 0.3	249.64
270.37 K, Crystal, x1 = 0.37	255.18
270.4 K, Crystal, x1 = 0.83	342.31
270.7 K, Metastable crystal, x1 = 0.83	363.68
271.02 K, Crystal, x1 = 0.3	254.4
271.52 K, Crystal, x1 = 0.37	259.98
272.01 K, Crystal, x1 = 0.3	258.84
272.47 K, Crystal, x1 = 0.83	347
272.55 K, Metastable crystal, x1 = 0.83	367.59
272.66 K, Crystal, x1 = 0.37	265.28
272.99 K, Crystal, x1 = 0.3	264.76
273.8 K, Crystal, x1 = 0.37	270.96
273.97 K, Crystal, x1 = 0.3	269.83
274.39 K, Metastable crystal, x1 = 0.83	371.51
274.51 K, Crystal, x1 = 0.83	353.78
274.92 K, Crystal, x1 = 0.37	276.89
274.93 K, Crystal, x1 = 0.3	276.18
275.88 K, Crystal, x1 = 0.3	281.68
276.03 K, Crystal, x1 = 0.37	283.2
276.22 K, Metastable crystal, x1 = 0.83	375.42
276.53 K, Crystal, x1 = 0.83	361.08
276.82 K, Crystal, x1 = 0.3	288.23
277.13 K, Crystal, x1 = 0.37	289.76
277.75 K, Crystal, x1 = 0.3	295.53
278.04 K, Metastable crystal, x1 = 0.83	379.33
278.22 K, Crystal, x1 = 0.37	296.83
278.52 K, Crystal, x1 = 0.83	369.42
278.68 K, Crystal, x1 = 0.3	301.77
279.29 K, Crystal, x1 = 0.37	304.4
279.59 K, Crystal, x1 = 0.3	309.59
279.86 K, Metastable crystal, x1 = 0.83	383.76
280.35 K, Crystal, x1 = 0.37	312.6
280.48 K, Crystal, x1 = 0.3	318.37
280.49 K, Crystal, x1 = 0.83	379.59
281.36 K, Crystal, x1 = 0.3	326.4
281.39 K, Crystal, x1 = 0.37	321.44
281.67 K, Metastable crystal, x1 = 0.83	388.19
282.23 K, Crystal, x1 = 0.3	334.33
282.42 K, Crystal, x1 = 0.37	331.41
282.42 K, Crystal, x1 = 0.83	391.58
283.09 K, Crystal, x1 = 0.3	343.11
283.44 K, Crystal, x1 = 0.37	340.37
283.47 K, Metastable crystal, x1 = 0.83	393.14
283.93 K, Crystal, x1 = 0.3	351.57
284.33 K, Crystal, x1 = 0.83	406.44
284.44 K, Crystal, x1 = 0.37	351.47
284.76 K, Crystal, x1 = 0.3	360.66
285.26 K, Metastable crystal, x1 = 0.83	399.66
285.41 K, Crystal, x1 = 0.37	362.2
285.58 K, Crystal, x1 = 0.3	372.5
286.18 K, Crystal, x1 = 0.83	423.91
286.37 K, Crystal, x1 = 0.3	390.05
286.38 K, Crystal, x1 = 0.37	375.33
287.02 K, Metastable crystal, x1 = 0.83	407.22
287.16 K, Crystal, x1 = 0.3	386.46
287.33 K, Crystal, x1 = 0.37	388.2
287.96 K, Crystal, x1 = 0.3	383.82
288 K, Crystal, x1 = 0.83	449.2
288.25 K, Crystal, x1 = 0.37	402.21
288.77 K, Crystal, x1 = 0.3	372.08
288.84 K, Metastable crystal, x1 = 0.83	414.26
289.16 K, Crystal, x1 = 0.37	417.23
289.6 K, Crystal, x1 = 0.3	343.95
289.76 K, Crystal, x1 = 0.83	475.27
290.05 K, Crystal, x1 = 0.37	434.26
290.49 K, Crystal, x1 = 0.3	303.04
290.69 K, Metastable crystal, x1 = 0.83	420.52
290.92 K, Crystal, x1 = 0.37	452.18
291.45 K, Crystal, x1 = 0.3	258.1
291.45 K, Crystal, x1 = 0.83	514.89
291.76 K, Crystal, x1 = 0.37	471.62
292.49 K, Crystal, x1 = 0.3	228.39
292.58 K, Crystal, x1 = 0.37	492.69
292.6 K, Metastable crystal, x1 = 0.83	426.25
293.09 K, Crystal, x1 = 0.83	549.83
293.38 K, Crystal, x1 = 0.37	514.4
293.57 K, Crystal, x1 = 0.3	214.64
294.16 K, Crystal, x1 = 0.37	540.9
294.56 K, Metastable crystal, x1 = 0.83	426.77
